Patent US5880099A, “Inositol polyphosphates and methods of using same” (The Regents of the University of California, priority 1997, dated 1999)
Entries after “also recorded” stand apart in the source; their conditions may differ.

Experiments:
[1] = test system: T84 colonic epithelial cells (carbachol-mediated inhibition of chloride ion secretion); assay: Reversal of carbachol-mediated inhibition of thapsigargin-stimulated chloride ion secretion in T84 cells; type: cell-based, human; conditions: carbachol 10^-4 M, thapsigargin 1 μM
Procedure: T84 colonic epithelial cells were treated with D,L-1,2-cyclohexylidene-Ins(3,4,5,6)P4 /AM, 1-Bu-2-Bt-Ins(3,4,5,6)P4 /AM, Bu2 -Ins(3,4,5,6)P4 /AM, 3-Bt-2-Bu-Ins(1,4,5,6)P4 /AM, Bu2 -Ins(1,4,5,6)P4 /AM, 1-Bt-2-Bu-Ins(3,4,5,6)P4 /AM or 3-Bu-2-Bt-Ins(1,4,5,6)P4 /AM and the short circuit current was measured.
One set of cells was preincubated for 30 min with an inositol polyphosphate derivative. The other two sets of cells were preincubated with vehicle, alone. Measurement of Isc was initiated at time 0. At 5 min, carbachol (10^-4 M) was added to one set of cells preincubated with vehicle alone (designated "Carbachol" in FIG. 5) and to the set of cells preincubated with inositol polyphosphate derivatives (designated "Carbachol+D,L-1,2-Cyclohexylidene-Ins(3,4,5,6)P4 /AM" in FIG. 5A). At 30 min, 1 μM thapsigargin was added. Data were collected for n=4 to 6 experiments.

[2] = test system: colonic epithelial T84 cells (calcium-mediated chloride ion secretion); assay: Inhibition of calcium-mediated chloride ion secretion (Table I summary); type: cell-based, human; conditions: pathway: Ins (3,4,5,6)P4
From the text: The invention provides compounds that are agonists or antagonists of inositol polyphosphates. Inositol polyphosphate derivatives can function as inositol polyphosphate agonists and antagonists. The effects of compounds of the invention on Ins(3,4,5,6)P4 - and PtdInsP3 -mediated inhibition of calcium-mediated chloride ion secretion are described in the Examples and summarized in Table I.
Enantiomerically pure 1,2-Bt2 -Ins(3,4,5,6)P4 /AM was synthesized to determine if 1,2-Bt2 -Ins(3,4,5,6)P4 /AM mediates the uncoupling of chloride ion secretion from intracellular calcium concentrations. T84 cells (passages 18-48) were maintained as described previously (Weymer, et al., J. Clin. Invest. 76:1828 (1985)), which is incorporated herein by reference. After 7-10 days of incubation on SNAP-WELLS (Corning Costar; Cambridge, Mass.), monolayers had formed tight junctions. Cell monolayers were preincubated with 100, 200 or 400 μM Bt2 -Ins(3,4,5,6)P4 /AM for 30 min prior to mounting. After an additional 30 min, 0.1 mM histamine was added and chloride ion secretion was monitored. Chloride ion secretion was measured as short circuit current (Isc) across T84 monolayers grown to confluence and mounted in Ussing chambers equipped with voltage clamps (Physiologic Instruments; San Diego, Calif.). Data was acquired and analyzed using "Acquire and Analyze" software (Physiologic Instruments).

[3] = test system: T84 cells (Ins(3,4,5,6)P4 inhibition of histamine-stimulated chloride ion secretion); assay: Reversal of Bt2 -Ins(3,4,5,6)P4 /AM inhibition of histamine-stimulated chloride ion secretion in T84 cells; type: cell-based, human; conditions: T84 cells, histamine-stimulated
Procedure: Initial studies were directed towards understanding structural determinants of Ins(3,4,5,6)P4 responsible for the inhibitory effect on calcium-mediated chloride ion secretion. A series of cell permeable inositol polyphosphate derivatives were synthesized. These derivatives contained either one or two non-hydrolyzable chemical groups on the 1, 2 or 3 position. T84 monolayers were preincubated for 30 minutes with 200 μM of 2-Bt-1-Me-Ins(3,4,5,6)P4 /AM, Me2 -Ins(3,4,5,6)P4 /AM, Me2 -Ins(1,4,5,6)P4 /AM or 2-Bt-3-Me-Ins(1,4,5,6)P4 /AM.
Following the incubation, cells were mounted in Ussing chambers. Calcium-mediated chloride ion secretion was stimulated with histamine (10^-4 M). Control values were the response to histamine in coincubated monolayers. Data are represented as mean peak ΔIsc ±SEM, expressed as % control for 8 to 10 experiments. Significant differences were identified using the Student's two-tailed t test.
T84 cells were preincubated with cell permeant inositol polyphosphates as described above to determine if any of the inositol polyphosphate derivatives function as antagonists of Ins(3,4,5,6)P4 inhibition of calcium-mediated chloride ion secretion. Following histamine stimulation, short circuit current was measured. […] The % control shown in FIG. 3 represents ΔIsc over peak Isc in control monolayers stimulated with histamine. However, […]

[4] = test system: phosphatidylinositol 3-kinase (PI 3-kinase); conditions: Uribe et al. 1996b; cited from earlier work
[5] = test system: T84 cells (EGF induced inhibition of chloride ion secretion); conditions: cited from earlier work
[6] = test system: Ins(3,4,5,6)P4; conditions: background; cited from earlier work
[7] = test system: T84 cells (EGF induced inhibition of chloride ion secretion); assay: EGF induced inhibition of carbachol-stimulated chloride ion secretion in T84 cells and its reversal; type: cell-based, human; conditions: EGF 16.3 nM, carbachol 100 μM
Procedure: After an additional 15 min incubation, 100 μM carbachol was added to acutely elevate intracellular calcium concentrations. Controls also were stimulated with carbachol but were not pretreated with EGF. Data are the means of duplicate measurements from a representative experiment (total of three experiments).

Compound: CC(=O)OCOP(=O)(OCOC(C)=O)O[C@H]1[C@H](OP(=O)(OCOC(C)=O)OCOC(C)=O)[C@@H](OP(=O)(OCOC(C)=O)OCOC(C)=O)[C@H]2OC3(CCCCC3)O[C@H]2[C@@H]1OP(=O)(OCOC(C)=O)OCOC(C)=O (relative stereo) [rac-1,2-Di-O-cycloheylidene-myo-inositol 3,4,5,6-tetrakisphosphate octakis(acetoxymethyl)ester]
- reversal of carbachol-mediated inhibition of chloride ion secretion (in words) [1]: enhanced chloride ion secretion; also recorded: reversed the inhibitory effect of carbachol on calcium-mediated chloride ion secretion; also recorded: reversed the carbachol-mediated inhibition of chloride ion secretion stimulated by thapsigargin
- Mechanism and Inositol Polyphosphate Pathway Affected [2]: Antagonist of

Compound: CCCCO[C@@H]1[C@H](OC(=O)CCC)[C@H](OP(=O)(OCOC(C)=O)OCOC(C)=O)[C@@H](OP(=O)(OCOC(C)=O)OCOC(C)=O)[C@H](OP(=O)(OCOC(C)=O)OCOC(C)=O)[C@H]1OP(=O)(OCOC(C)=O)OCOC(C)=O [1-Bu-2-Bt-Ins(3,4,5,6)P4 /AM, D-1-O-Butyl-2-O-butyryl-myo-inositol 3,4,5,6-tetrakisphosphate octakis(acetoxymethyl)ester]
- reversal of carbachol-mediated inhibition of chloride ion secretion (in words) [1]: enhanced chloride ion secretion; also recorded: reversed the carbachol-mediated inhibition of chloride ion secretion stimulated by thapsigargin
- reversal of the inhibitory effect of Bt2 -Ins(3,4,5,6)P4 /AM / Ins(3,4,5,6)P4-mediated inhibition (in words) [3]: reversed Ins(3,4,5,6)P4 -mediated inhibition of chloride ion secretion
- Mechanism and Inositol Polyphosphate Pathway Affected [2]: Antagonist of

Compound: CCCCO[C@@H]1[C@H](OCCCC)[C@H](OP(=O)(OCOC(C)=O)OCOC(C)=O)[C@@H](OP(=O)(OCOC(C)=O)OCOC(C)=O)[C@H](OP(=O)(OCOC(C)=O)OCOC(C)=O)[C@H]1OP(=O)(OCOC(C)=O)OCOC(C)=O [Bu2 -Ins(3,4,5,6)P4 /AM, D-1,2-Di-O-butyl-myo-inositol 3,4,5,6-tetrakisphosphate octakis(acetozymethyl)ester]
- reversal of carbachol-mediated inhibition of chloride ion secretion (in words) [1]: enhanced chloride ion secretion; also recorded: reversed the carbachol-mediated inhibition of chloride ion secretion stimulated by thapsigargin
- reversal of the inhibitory effect of Bt2 -Ins(3,4,5,6)P4 /AM / Ins(3,4,5,6)P4-mediated inhibition (in words) [3]: reversed Ins(3,4,5,6)P4 -mediated inhibition of chloride ion secretion
- Mechanism and Inositol Polyphosphate Pathway Affected [2]: Antagonist of

Compound: COC[C@H]1OC(=O)c2coc3c2[C@@]1(C)C1=C(C3=O)[C@@H]2CCC(=O)[C@@]2(C)C[C@H]1OC(C)=O [Wortmannin, reference compound]
- effect on formation of PI 3-kinase products (in words) [4]: blocked formation of PtdInsP3 and PtdInsP2
- reversal of EGF induced inhibition of chloride ion secretion (in words) ([5]; Uribe et al. 1996b): reversed the EGF induced inhibition of chloride ion secretion

Compound: EGF: epidermal growth factor (EGF)
- increase in Ins(3,4,5,6)P4 levels [6]: 1.7 -fold
- effect on formation of PI 3-kinase products (in words) [4]: stimulated an increase in levels of the PI 3-kinase products
- effect on calcium-mediated chloride ion secretion induced by carbachol and thapsigargin (in words) ([5]; Uribe et al. 1996): inhibits calcium-mediated chloride ion secretion
- effect on carbachol-stimulated chloride ion secretion / EGF induced inhibition (in words) [7]: decreased chloride ion secretion; also recorded: inhibited carbachol stimulated chloride ion secretion
